{"source": "patent US11560385B2", "about": "“Proteasome activity enhancing compounds” (Proteostasis Therapeutics, Inc., priority 2018, dated 2023)"}
{"biological_target": "USP14 (Homo sapiens (Human), UniProt P54578)", "sequence (P54578 whole entry, looked up)": "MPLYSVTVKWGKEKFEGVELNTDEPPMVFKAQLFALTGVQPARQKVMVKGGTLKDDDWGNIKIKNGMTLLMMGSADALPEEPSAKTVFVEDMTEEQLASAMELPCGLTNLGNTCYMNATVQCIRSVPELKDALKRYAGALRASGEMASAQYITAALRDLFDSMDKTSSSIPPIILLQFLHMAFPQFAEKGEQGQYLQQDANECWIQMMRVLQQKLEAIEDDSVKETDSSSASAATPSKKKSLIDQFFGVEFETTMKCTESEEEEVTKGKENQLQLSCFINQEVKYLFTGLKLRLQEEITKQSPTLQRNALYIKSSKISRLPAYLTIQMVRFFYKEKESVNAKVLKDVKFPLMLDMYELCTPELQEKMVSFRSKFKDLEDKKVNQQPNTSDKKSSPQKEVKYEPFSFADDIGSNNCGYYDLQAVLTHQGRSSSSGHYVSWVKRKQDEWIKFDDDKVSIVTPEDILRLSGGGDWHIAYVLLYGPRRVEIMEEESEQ", "test": "Usp14 inhibition assay (Example 57B, B-series compounds)", "format": "biochemical", "details": "IC50 class; average value from a minimum of two experimental determinations", "description": "Example 57B: Usp14 Inhibition Assay\nThe IC50 values in the Table below represent the average value from a minimum of two experimental determinations.", "units": {"IC50": "nM"}}
{"smiles": "Cc1c(C(=O)CN2[C@@H]3CC[C@H]2[C@@H](O)C3)cc(C(C)C)n1-c1ccc(C#N)cc1", "note": "(racemic) [Example 112B, (±)-4-(3-(2-((1R,2R,4S)-2-Hydroxy-7-azabicyclo[2.2.1]heptan-7-yl)acetyl)-5-isopropyl-2-methyl-1H-pyrrol-1-yl)benzonitrile]", "IC50": "50 to 500"}
{"smiles": "Cc1c(C(=O)CN2C3CCC2[C@@H](O)C3)cc(C(C)(C)C)n1-c1ccc(C#N)cc1", "note": "(mixture of isomers) [Example 113B, (±)-4-(5-(tert-Butyl)-3-(2-((2R)-2-hydroxy-7-azabicyclo[2.2.1]heptan-7-yl)acetyl)-2-methyl-1H-pyrrol-1-yl)benzonitrile]", "IC50": "50 to 500"}
{"smiles": "CCC(C)c1cc(C(=O)CN2C3CCC2[C@@H](O)C3)c(C)n1-c1ccc(C#N)cc1", "note": "(mixture of isomers) [Example 114B, (±)-4-(5-(sec-Butyl)-3-(2-((1R,2R,4S)-2-hydroxy-7-azabicyclo[2.2.1]heptan-7-yl)acetyl)-2-methyl-1H-pyrrol-1-yl)benzonitrile]", "IC50": "50 to 500"}
{"smiles": "Cc1c(C(=O)CN2C3CCC2[C@@H](O)C3)cc(CC(F)(F)F)n1-c1ccc(C#N)cc1", "note": "(mixture of isomers) [Example 115B, (±)-4-(3-(2-((2R)-2-Hydroxy-7-azabicyclo[2.2.1]heptan-7-yl)acetyl)-2-methyl-5-(2,2,2-trifluoroethyl)-1H-pyrrol-1-yl)benzonitrile]", "IC50": "50 to 500"}
{"smiles": "Cc1c(F)c(C(=O)CN2C3CC4CC2CC(C3)O4)c(C)n1-c1ccc(C#N)c(F)c1", "note": "(racemic) [Example 116B, (±)-4-(3-(2-((1r,3r)-2-Oxa-6-azaadamantan-6-yl)acetyl)-4-fluoro-2,5-dimethyl-1H-pyrrol-1-yl)-2-fluorobenzonitrile]", "IC50": "50 to 500"}
{"smiles": "Cc1cc(C(=O)CN2C3CCC2[C@@H](O)C3)c(C)n1-c1ccc(Cl)c(F)c1", "note": "(mixture of isomers) [Example 117B, (±)-1-(1-(4-Chloro-3-fluorophenyl)-2,5-dimethyl-1H-pyrrol-3-yl)-2-((2R)-2-hydroxy-7-azabicyclo[2.2.1]heptan-7-yl)ethan-1-one]", "IC50": "50 to 500"}
{"smiles": "Cc1cc(C(=O)CN2C3CCC2[C@@H](O)C3)c(C)n1-c1cc(F)c(Cl)c(F)c1", "note": "(mixture of isomers) [Example 118B, (±)-1-(1-(4-Chloro-3,5-difluorophenyl)-2,5-dimethyl-1H-pyrrol-3-yl)-2-((2R)-2-hydroxy-7-azabicyclo[2.2.1]heptan-7-yl)ethan-1-one]", "IC50": "> 500"}
{"smiles": "Cc1c(C(=O)CN2C3CCC2[C@@H](O)C3)cc(Br)n1-c1ccc(C#N)cc1", "note": "(mixture of isomers) [Example 119B, (±)-4-(5-Bromo-3-(2-((2R)-2-hydroxy-7-azabicyclo[2.2.1]heptan-7-yl)acetyl)-2-methyl-1H-pyrrol-1-yl)benzonitrile]", "IC50": "50 to 500"}
{"smiles": "Cc1c(F)c(C(=O)CN2C3CCC2[C@@H](O)C3)c(C)n1-c1ccc(C#N)c(F)c1", "note": "(mixture of isomers) [Example 120B, (±)-2-Fluoro-4-(3-fluoro-4-(2-((2R)-2-hydroxy-7-azabicyclo[2.2.1]heptan-7-yl)acetyl)-2,5-dimethyl-1H-pyrrol-1-yl)benzonitrile]", "IC50": "< 50"}
{"smiles": "Cc1c(F)c(C(=O)CN2[C@@H]3CC[C@H]2[C@H](C)C3)c(C)n1-c1ccc(C#N)cc1", "note": "(racemic) [Example 121B, (±)-4-(3-Fluoro-2,5-dimethyl-4-(2-((1S,2R,4R)-2-methyl-7-azabicyclo[2.2.1]heptan-7-yl)acetyl)-1H-pyrrol-1-yl)benzonitrile]", "IC50": "50 to 500"}
{"smiles": "Cc1cc(C(=O)CN2[C@@H]3CC[C@H]2[C@H](C)C3)c(C)n1-c1ccc(C#N)cc1", "note": "(racemic) [Example 122B, (±)-4-(2,5-Dimethyl-3-(2-((1S,2R,4R)-2-methyl-7-azabicyclo[2.2.1]heptan-7-yl)acetyl)-1H-pyrrol-1-yl)benzonitrile]", "IC50": "50 to 500"}
{"smiles": "Cc1nc(Cc2c(Br)c(C(=O)CN3C4CCC3[C@@H](O)C4)c(C)n2-c2ccc(C#N)cc2)cs1", "note": "(mixture of isomers) [Example 129B, (±)-4-(3-Bromo-4-(2-((2R)-2-hydroxy-7-azabicyclo[2.2.1]heptan-7-yl)acetyl)-5-methyl-2-((2-methylthiazol-4-yl)methyl)-1H-pyrrol-1-yl)benzonitrile]", "IC50": "50 to 500"}
{"smiles": "Cc1cc(C(=O)CN2C3CCC2[C@@H](CO)C3)c(C)n1-c1ccc(C#N)cc1", "note": "(mixture of isomers) [Example 130B, (±)-4-(3-(2-((2R)-2-(Hydroxymethyl)-7-azabicyclo[2.2.1]heptan-7-yl)acetyl)-2,5-dimethyl-1H-pyrrol-1-yl)benzonitrile]", "IC50": "50 to 500"}
{"smiles": "Cc1c(C(=O)CN2[C@@H]3CC[C@H]2[C@@H](O)C3)cc(C2CC(F)(F)C2)n1-c1ccc(C#N)cc1", "note": "(racemic) [Example 131B, (±)-4-(5-(3,3-Difluorocyclobutyl)-3-(2-((1R,2R,4S)-2-hydroxy-7-azabicyclo[2.2.1]heptan-7-yl)acetyl)-2-methyl-1H-pyrrol-1-yl)benzonitrile]", "IC50": "50 to 500"}
{"smiles": "Cc1c(C(=O)CN2C3CCC2[C@@H](O)C3)cc(C2CC(F)C2)n1-c1ccc(C#N)cc1", "note": "(mixture of isomers) [Example 132B, (±)-4-(5-(3-Fluorocyclobutyl)-3-(2-((2R)-2-hydroxy-7-azabicyclo[2.2.1]heptan-7-yl)acetyl)-2-methyl-1H-pyrrol-1-yl)benzonitrile]", "IC50": "< 50"}
{"smiles": "Cc1c(C(=O)CN2[C@@H]3CC[C@H]2[C@@H](O)C3)cc(CC2CCC2)n1-c1ccc(C#N)cc1", "note": "(racemic) [Example 133B, (±)-4-(5-(Cyclobutylmethyl)-3-(2-((1R,2R,4S)-2-hydroxy-7-azabicyclo[2.2.1]heptan-7-yl)acetyl)-2-methyl-1H-pyrrol-1-yl)benzonitrile]", "IC50": "< 50"}
{"smiles": "Cc1c(C(=O)CN2[C@@H]3CC[C@H]2[C@@H](O)C3)cc(CC2CC(C)(C)C2)n1-c1ccc(C#N)cc1", "note": "(racemic) [Example 134B, (±)-4-(5-((3,3-Dimethylcyclobutyl)methyl)-3-(2-((1R,2R,4S)-2-hydroxy-7-azabicyclo[2.2.1]heptan-7-yl)acetyl)-2-methyl-1H-pyrrol-1-yl)benzonitrile]", "IC50": "< 50"}
{"smiles": "Cc1c(C(=O)CN2C3CCC2[C@@H](O)C3)cc(CC2CC(F)(F)C2)n1-c1ccc(C#N)cc1", "note": "(mixture of isomers) [Example 135B, (±)-4-(5-((3,3-Difluorocyclobutyl)methyl)-3-(2-((2R)-2-hydroxy-7-azabicyclo[2.2.1]heptan-7-yl)acetyl)-2-methyl-1H-pyrrol-1-yl)benzonitrile]", "IC50": "< 50"}
{"smiles": "Cc1c(C(=O)CN2[C@@H]3CC[C@H]2[C@@H](C)C3)cc(C#N)n1-c1ccc(C#N)cc1", "note": "(racemic) [Example 136B, (±)-1-(4-Cyanophenyl)-5-methyl-4-(2-((1R,2R,4S)-2-methyl-7-azabicyclo[2.2.1]heptan-7-yl)acetyl)-1H-pyrrole-2-carbonitrile]", "IC50": "< 50"}
{"smiles": "Cc1cc(C(=O)CN2[C@@H]3CC[C@H]2[C@H]2CCO[C@H]23)c(C)n1-c1ccc(C#N)cc1", "note": "(racemic) [Example 139B, (±)-4-(2,5-Dimethyl-3-(2-((3aR,4S,7R,7aR)-octahydro-4,7-epiminobenzofuran-8-yl)acetyl)-1H-pyrrol-1-yl)benzonitrile]", "IC50": "> 500"}
{"smiles": "Cc1cc(C(=O)CN2[C@@H]3CC[C@H]2[C@@H](C)[C@@H]3C)c(C)n1-c1ccc(C#N)cc1", "note": "(racemic) [Example 140B, (±)-4-(3-(2-((1R,2R,3R,4S)-2,3-Dimethyl-7-azabicyclo[2.2.1]heptan-7-yl)acetyl)-2,5-dimethyl-1H-pyrrol-1-yl)benzonitrile]", "IC50": "50 to 500"}
{"smiles": "Cc1cc(C(=O)CN2[C@@H]3C=C(C(F)(F)F)[C@H]2CC3)c(C)n1-c1ccc(C#N)cc1", "note": "(racemic) [Example 141B, (±)-4-(2,5-Dimethyl-3-(2-((1R,4S)-2-(trifluoromethyl)-7-azabicyclo[2.2.1]hept-2-en-7-yl)acetyl)-1H-pyrrol-1-yl)benzonitrile]", "IC50": "> 500"}
{"smiles": "Cc1c(C(=O)CN2C3CCC2C(O)C3)cc([C@@H]2C[C@H]2C)n1-c1ccc(C#N)cc1", "note": "(mixture of isomers) [Example 142B, (±)-4-(3-(2-((1S,2R,4R)-2-Hydroxy-7-azabicyclo[2.2.1]heptan-7-yl)acetyl)-2-methyl-5-(2-methylcyclopropyl)-1H-pyrrol-1-yl)benzonitrile]", "IC50": "50 to 500"}
{"smiles": "Cc1cc(C(=O)CN2C3CCC2(C(C)O)CC3)c(C)n1-c1ccc(C#N)cc1", "note": "(racemic) [Example 143B, (±)-4-(3-(2-(1-((R)-1-Hydroxyethyl)-7-azabicyclo[2.2.1]heptan-7-yl)acetyl)-2,5-dimethyl-1H-pyrrol-1-yl)benzonitrile]", "IC50": "50 to 500"}
{"smiles": "Cc1nc(-c2cc(C(=O)CN3[C@@H]4CC[C@H]3[C@@H](O)C4)c(C)n2-c2ccc(C#N)cc2)cs1", "note": "(racemic) [Example 144B, (±)-4-(3-(2-((1R,2R,4S)-2-Hydroxy-7-azabicyclo[2.2.1]heptan-7-yl)acetyl)-2-methyl-5-(2-methylthiazol-4-yl)-1H-pyrrol-1-yl)benzonitrile]", "IC50": "50 to 500"}
{"smiles": "Cc1c(C(=O)CN2[C@@H]3CC[C@H]2[C@@H](O)C3)cc(-c2csc(C(F)(F)F)n2)n1-c1ccc(C#N)cc1", "note": "(racemic) [Example 145B, (±)-4-(3-(2-((1R,2R,4S)-2-Hydroxy-7-azabicyclo[2.2.1]heptan-7-yl)acetyl)-2-methyl-5-(2-(trifluoromethyl)thiazol-4-yl)-1H-pyrrol-1-yl)benzonitrile]", "IC50": "> 500"}
{"smiles": "Cc1c(C(=O)CN2[C@@H]3CC[C@H]2[C@@H](O)C3)cc(-c2nccs2)n1-c1ccc(C#N)cc1", "note": "(racemic) [Example 146B, (±)-4-(3-(2-((1R,2R,4S)-2-Hydroxy-7-azabicyclo[2.2.1]heptan-7-yl)acetyl)-2-methyl-5-(thiazol-2-yl)-1H-pyrrol-1-yl)benzonitrile]", "IC50": "> 500"}
{"smiles": "Cc1ncc(-c2cc(C(=O)CN3[C@@H]4CC[C@H]3[C@@H](O)C4)c(C)n2-c2ccc(C#N)cc2)s1", "note": "(racemic) [Example 147B, (±)-4-(3-(2-((1R,2R,4S)-2-Hydroxy-7-azabicyclo[2.2.1]heptan-7-yl)acetyl)-2-methyl-5-(2-methylthiazol-5-yl)-1H-pyrrol-1-yl)benzonitrile]", "IC50": "50 to 500"}
{"smiles": "Cc1cc(C(=O)CN2C3CCC2[C@@H](CC(C)(C)O)C3)c(C)n1-c1ccc(C#N)cc1", "note": "(mixture of isomers) [Example 148B, (±)-4-(3-(2-((2S)-2-(2-Hydroxy-2-methylpropyl)-7-azabicyclo[2.2.1]heptan-7-yl)acetyl)-2,5-dimethyl-1H-pyrrol-1-yl)benzonitrile]", "IC50": "> 500"}
